Earlier results, collected in patent US6803187B1 (priority 1998, dated 2004).

Columns and labels:
HIV protease = details: HIV-1 protease numbering

In the case of `CC(C)(C)NC(=O)[C@@H]1CN(Cc2cccnc2)CCN1C[C@@H](O)C[C@@H](Cc1ccccc1)C(=O)N[C@H]1c2ccccc2C[C@H]1O` [MK-639, indinavir], the “share of indinavir resistant isolates cross-resistant to nelfinavir” value (HIV; human, in vivo) is given as “Approximately one third”.

For `CC(C)(C)NC(=O)[C@@H]1C[C@@H]2CCCC[C@@H]2CN1C[C@@H](O)[C@H](Cc1ccccc1)NC(=O)[C@H](CC(N)=O)NC(=O)c1ccc2ccccc2n1` [Ro 31-8959, saquinavir], the “patients in whom resistant variants emerge” value (HIV; after 1 year of monotherapy, mutations at positions 90 and/or 48) is listed as “approximately 45%”.

For `CC(C)CN(C[C@@H](O)[C@H](Cc1ccccc1)NC(=O)O[C@H]1CCOC1)S(=O)(=O)c1ccc(N)cc1` [VX-478], the “amino acid position/codon whose change confers resistance” value (HIV protease) is listed as 50.
